The results in this text go back to US20220009967A1, “Isolation and Semi-Synthesis of Rufomycin Analogs” (THE BOARD OF TRUSTEES OF THE UNIVERSITY OF ILLINOIS, priority 2020, published 2022).

A short description of data set [1]: Interconversion (epimerization) of rufomycin diastereomers, HPLC analysis. Particulars: for interconversion / stability of diastereomers (in words): HPLC analysis, hemi-aminal epimers. In kind it is physicochemical. An excerpt:
The rufomycins 32-35 were identified as four diastereomers, arising from different orientations of the hydroxyl and methyl groups in the hydroxy-methyl piperidinone moiety. Rufomycin 32 was assigned the (AA5, 4S,5R) absolute configuration based on the ROESY correlations, and further confirmed by the cocrystal structures of rufomycin 32 and ClpC1-NTD. Thus, rufomycin 32 is that congener previously identified as ilamycin, Compound 4, and ilamycin C1 (PCT/US2000/015044). […] The assigned 4S,5S (AA5) absolute configuration for rufomycin 33 was validated by the ROESY correlations. Rufomycin 34 with the absolute configuration 4R,5R (AA5) was established by the ROESY cross-peaks. […] After being purified by semi-prep HPLC, rufomycin 35 was concentrated under a stream of forced air and freeze drying to reduce interconversion.

For another data set, the target named is T1, Mycobacterial ClpC1-NTD (Mycobacterium tuberculosis, UniProt P9WPC9).
T1 construct: caseinolytic protein C1 (ClpC1) N-terminal domain (NTD)
T1 sequence (P9WPC9 2-144): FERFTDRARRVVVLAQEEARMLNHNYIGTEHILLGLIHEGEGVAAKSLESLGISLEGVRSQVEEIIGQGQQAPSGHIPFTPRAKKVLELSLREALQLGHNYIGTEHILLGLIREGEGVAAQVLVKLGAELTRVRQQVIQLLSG
Briefly: SPR binding affinity to ClpC1-NTD. Particulars: SPR, ClpC1 N-terminal domain; Table 3, unit inferred; read-out: KD NTD. As for the experimental part: (§1) Analysis of binding affinity to Mycobacterial ClpC1-NTD and FL by SPR. SPR binding assay was performed using a previously reported method (Choules et al., Antimicrob. Agents Chemother. 2019, 63, e02204-02218; Wolf et al., ACS Infect. Dis. 2019, 5, 829-840). Kinetic rate constants (ka and kd) were determined by fitting the double-reference data globally to the 1:1 Langmuir model embedded in the Biacore T200 evaluation software (v3.0). KD values were then calculated from the two rate constants (KD=kd/ka). Smaller KD values represent tighter binding affinities.
On the technique in general: SPR reads the build-up and loss of mass on a sensor chip optically.

The test system of another data set is M. tuberculosis. Briefly: MIC against M. tuberculosis, microplate Alamar Blue assay (MABA). Particulars: for MIC90: MABA, Table 3, unit not given. In kind it is cell-based, Mycobacterium tuberculosis. More on the design: MIC90: unit not given beside the values. How it is done:
MICs against M. tuberculosis. The MIC was defined as the minimum concentration of the compound required to achieve a reduction in fluorescence by 90% relative to the untreated bacterial controls. The anti-TB activity was determined by the microplate Alamar Blue assay (MABA) as previously described (Choules et al., Antimicrob. Agents Chemother. 2019, 63, e02204-02218).
A general note: Resazurin is reduced to fluorescent resorufin, in cell work by metabolically active cells.

The target of another data set is T2, Mycobacterial ClpC1 FL (Mycobacterium tuberculosis, UniProt P9WPC9).
T2 construct: N-terminal domain (NTD) and the full-length protein (FL) by surface plasmon resonance (SPR)
T2 sequence (P9WPC9 whole entry, the tested form may be a part): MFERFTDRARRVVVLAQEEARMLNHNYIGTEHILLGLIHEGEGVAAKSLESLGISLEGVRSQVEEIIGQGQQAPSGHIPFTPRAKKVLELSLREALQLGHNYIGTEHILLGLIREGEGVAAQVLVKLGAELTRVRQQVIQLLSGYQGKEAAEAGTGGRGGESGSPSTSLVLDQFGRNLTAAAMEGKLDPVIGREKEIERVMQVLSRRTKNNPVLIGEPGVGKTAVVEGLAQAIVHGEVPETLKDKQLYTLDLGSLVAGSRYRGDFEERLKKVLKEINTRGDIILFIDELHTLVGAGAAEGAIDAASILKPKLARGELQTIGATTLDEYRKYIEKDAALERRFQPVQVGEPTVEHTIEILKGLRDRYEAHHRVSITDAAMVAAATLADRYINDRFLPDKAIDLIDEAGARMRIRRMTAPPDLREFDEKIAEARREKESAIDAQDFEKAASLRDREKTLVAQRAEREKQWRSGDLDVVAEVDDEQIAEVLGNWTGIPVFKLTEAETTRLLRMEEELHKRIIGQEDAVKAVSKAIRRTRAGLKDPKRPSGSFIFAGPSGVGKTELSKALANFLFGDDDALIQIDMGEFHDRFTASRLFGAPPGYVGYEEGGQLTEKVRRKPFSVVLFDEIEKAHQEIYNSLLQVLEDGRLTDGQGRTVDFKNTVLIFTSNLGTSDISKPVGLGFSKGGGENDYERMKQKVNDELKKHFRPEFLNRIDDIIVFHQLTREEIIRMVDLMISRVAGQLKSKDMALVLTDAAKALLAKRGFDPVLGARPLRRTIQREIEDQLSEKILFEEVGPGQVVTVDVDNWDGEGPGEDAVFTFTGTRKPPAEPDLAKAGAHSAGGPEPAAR
Briefly: SPR binding affinity to ClpC1 full-length protein (FL). Particulars: SPR, ClpC1 full-length protein; Table 3, unit inferred; read-out: KD FL. As for the experimental part: as §1

In data set [2] the target is caseinolytic protein C1 (ClpC1) full-length protein (FL) (Mycobacterial (Mycobacterium tuberculosis by context)) (UniProt P9WPC9). Briefly: SPR (Biacore T200), 1:1 Langmuir fit, KD=kd/ka.
Chain of caseinolytic protein C1 (ClpC1) full-length protein (FL) (Mycobacterial (Mycobacterium tuberculosis by context)) (P9WPC9 whole entry, the tested form may be a part): as above
The target of data set [3] is caseinolytic protein C1 (ClpC1) N-terminal domain (NTD) (Mycobacterial (Mycobacterium tuberculosis by context)) (UniProt P9WPC9). Briefly: SPR (Biacore T200), 1:1 Langmuir fit, KD=kd/ka.
Chain of caseinolytic protein C1 (ClpC1) N-terminal domain (NTD) (Mycobacterial (Mycobacterium tuberculosis by context)) (P9WPC9 1-145 limits assumed): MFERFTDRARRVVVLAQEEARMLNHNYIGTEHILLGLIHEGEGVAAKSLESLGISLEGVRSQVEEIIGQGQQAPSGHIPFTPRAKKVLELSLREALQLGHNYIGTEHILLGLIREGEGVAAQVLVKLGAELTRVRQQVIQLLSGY

The Kd is the free concentration of one partner at which half of the binding sites on the other are occupied at equilibrium, for simple one-to-one binding. `C/C=C/C[C@@H]1NC(=O)[C@H](CC(C)C)N2C(=O)[C@H](C[C@H](C)[C@@H]2O)N(C)C(=O)[C@H](C)NC(=O)[C@H](Cc2ccc(O)c([N+](=O)[O-])c2)NC(=O)[C@H](CC(C)C)N(C)C(=O)[C@H](Cc2cn(C(C)(C)[C@H]3CO3)c3ccccc23)NC1=O` [rufomycin 33]: the “interconversion / stability of diastereomers (in words)” value in data set [1] is listed as “interconvertible”. Besides, the Kd on Mycobacterial ClpC1-NTD is 29 nM; at Mycobacterial ClpC1 FL, 27 nM. In the data set with M. tuberculosis, this compound registered an MIC90 of 12. In addition, the “anti-M.tb potency relative to rifampin and isoniazid (in words)” value in the data set on M. tuberculosis (MIC data of Table 3) was “higher potency than drugs rifampin and isoniazid”.

For the compound `C/C=C/C[C@@H]1NC(=O)[C@H](CC(C)C)N2C(=O)[C@H](C[C@@H](C)[C@H]2O)N(C)C(=O)[C@H](C)NC(=O)[C@H](Cc2ccc(O)c([N+](=O)[O-])c2)NC(=O)[C@H](CC(C)C)N(C)C(=O)[C@H](Cc2cn(C(C)(C)[C@H]3CO3)c3ccccc23)NC1=O` [rufomycin 34], in data set [1] (under aqueous conditions, slowly), the “conversion to rufomycin 35” value is listed as about 5%. The Kd at Mycobacterial ClpC1-NTD worked out at 183 nM; at Mycobacterial ClpC1 FL, 178 nM. In the data set with M. tuberculosis, the MIC90 was 46.

With `C/C=C/C[C@@H]1NC(=O)[C@H](CC(C)C)N2C(=O)[C@H](C[C@@H](C)[C@@H]2O)N(C)C(=O)[C@H](C)NC(=O)[C@H](Cc2ccc(O)c([N+](=O)[O-])c2)NC(=O)[C@H](CC(C)C)N(C)C(=O)[C@H](Cc2cn(C(C)(C)[C@H]3CO3)c3ccccc23)NC1=O` [rufomycin 35], the “interconversion / stability of diastereomers (in words)” value in data set [1] is given as “the most unstable diastereomer”. In addition, in data set [1] (during concentration, quickly), the “epimerization to rufomycin 34” value was about 50%. The results for the dissociation constant Kd at Mycobacterial ClpC1-NTD and at Mycobacterial ClpC1 FL were 186 nM and 209 nM, respectively. The compound further came in with an MIC90 against M. tuberculosis of 47.

As for rufomycins 1 and 2 mixture (peptide), the dissociation constant Kd in data set [2] and in data set [3] was 70 nM in each case.
